Earlier results, collected in patent US20140256766A1, “TRANSMUCOSAL DRUG DELIVERY SYSTEM” (priority 2013, published 2014).

Assays:
[1] = smoking a cigarette (WO 03/055486 A1)
[2] = pH 6.8

CN1CCCC1c1cccnc1 (centres unmarked) [nicotine]
time to peak plasma nicotine levels [1]: about 10 minutes | nicotine in the free base form [2]: about 10%
